Key:
[1] = test system: Glycine, Strychnine-Sensitive; test: Radioligand binding panel (Table S1); set-up: species or system rat; conditions: 10 μM T1-11, n 2
Muscarinic M4 = molecular target: T1, Muscarinic M4 (Homo sapiens, UniProt P08173); test: Radioligand binding panel (Table S1); conditions: 10 μM T1-11, n 2
T1 construct: purchased MDS Pharma Services Taiwan

Somatostatin sst2 = molecular target: T2, Somatostatin sst2 (Homo sapiens, UniProt P30874); test: Radioligand binding panel (Table S1); conditions: 10 μM T1-11, n 2
T2 construct: purchased MDS Pharma Services Taiwan

mutant Htt aggregates = test: Striatal Htt aggregates (filter retardation assay, immunofluorescence); assay type: in vivo; conditions: R6/2 mice, 12 weeks old, 0.05 mg/ml in drinking water
Method: SDS-insoluble mutant Htt aggregates were detected and quantified as described. A filter retardation assay was performed as described previously. Blots were blocked with 5% skim milk in phosphate-buffered saline (PBS) and incubated with an anti-Htt antibody (EM48, 1∶500; Chemicon International, Temecula, CA, USA) at 4°C overnight followed by the corresponding secondary antibody for 1 h at room temperature. Immunoreactive bands were detected by enhanced chemiluminescence (Pierce) and recorded using Kodak XAR-5 film.
Coronal serial sections (20 µm) containing the striatum (interaural 5.34 mm/bregma 1.54 mm to interaural 3.7 mm/bregma −0.1 mm) were immunohistochemically stained as described previously. Brain sections were blocked with normal goat serum and incubated overnight with an anti-Htt antibody (EM48, 1∶500) at 4°C, followed by a 2 h-incubation with a goat anti-mouse IgG conjugated to Alexa Fluor® 568 at room temperature. The nuclei were stained with Hoechst 33258. The patterns of immunostaining were analyzed with a laser confocal microscope (LSM510, Carl Zeiss MicroImaging Inc, Germany). Five different brain sections of each animal were analyzed. At least 2000 cells from each animal were used to quantify the sizes of mHtt aggregates using ImageJ software (http://rsbweb.nih.gov/ij/; Research Services Branch of the National Institute of Mental Health, Bethesda, MD, USA).

Urotensin II = molecular target: T3, Urotensin II (Homo sapiens, UniProt Q9UKP6); test: Radioligand binding panel (Table S1); conditions: 10 μM T1-11, n 2
T3 construct: purchased MDS Pharma Services Taiwan

Adrenergic α 1A = molecular target: T4, Adrenergic α 1A (Rattus norvegicus, UniProt P43140); test: Radioligand binding panel (Table S1); conditions: 10 μM T1-11, n 2
T4 construct: purchased MDS Pharma Services Taiwan

[2] = T1-11 level in the brain after intraperitoneal injection; assay type: in vivo, mice; conditions: mouse, ip, 5 mg/kg, 30 min after the intraperitoneal injection, n = 4, mean ± s.e.m., read-out: T1-11 detected in the brain
[3] = molecular target: T5, Nicotinic Acetylcholine α7, Bungarotoxin (Rattus norvegicus, UniProt Q05941); test: Radioligand binding panel (Table S1)
T5 construct: purchased MDS Pharma Services Taiwan

[4] = molecular target: T6, Adenosine transporter (ENT1) (Cavia porcellus, UniProt H0V4R7); test: Radioligand binding assay; set-up: species or system guinea pig
T6 construct: Membrane fractions collected from the cerebral cortex of Duncan Hartley derived guinea pigs; tissue MDS Pharma Services Taiwan; host or cells: guinea pig cerebral cortex
T6 sequence (H0V4R7 1-461): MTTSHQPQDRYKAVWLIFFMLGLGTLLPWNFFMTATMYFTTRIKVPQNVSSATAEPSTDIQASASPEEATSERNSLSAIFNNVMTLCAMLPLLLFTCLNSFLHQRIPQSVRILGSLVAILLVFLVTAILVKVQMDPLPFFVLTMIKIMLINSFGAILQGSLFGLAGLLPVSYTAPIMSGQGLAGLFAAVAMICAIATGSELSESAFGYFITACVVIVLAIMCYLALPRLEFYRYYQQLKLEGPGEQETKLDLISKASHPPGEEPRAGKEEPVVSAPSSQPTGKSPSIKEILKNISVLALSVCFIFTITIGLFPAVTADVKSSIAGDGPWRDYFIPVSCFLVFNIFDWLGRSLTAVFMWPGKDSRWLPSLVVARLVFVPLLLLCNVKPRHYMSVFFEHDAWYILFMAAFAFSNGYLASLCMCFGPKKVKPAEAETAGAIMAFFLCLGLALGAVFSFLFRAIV

[5] = molecular target: T7, Serotonin (5-Hydroxytryptamine) 5-HT1A (Homo sapiens, UniProt P08908); test: Radioligand binding panel (Table S1); conditions: 10 μM T1-11, n 2
T7 construct: purchased MDS Pharma Services Taiwan

Vasopressin V2 = molecular target: T8, Vasopressin V2 (Homo sapiens, UniProt P30518); test: Radioligand binding panel (Table S1); conditions: 10 μM T1-11, n 2
T8 construct: purchased MDS Pharma Services Taiwan

Bombesin, Non-Selective = test: Radioligand binding panel (Table S1); set-up: species or system rat; conditions: 10 μM T1-11, n 2
Transporter, Choline = molecular target: T9, Transporter, Choline (Rattus norvegicus, UniProt Q9JMD7); test: Radioligand binding panel (Table S1); conditions: 10 μM T1-11, n 2
T9 construct: purchased MDS Pharma Services Taiwan

[6] = molecular target: T10, N-Formyl Peptide Receptor-like, FPRL1 (Homo sapiens, UniProt P25090); test: Radioligand binding panel (Table S1); conditions: 10 μM T1-11, n 2
T10 construct: purchased MDS Pharma Services Taiwan

[7] = test system: chymotrypsin-like activity of the proteasome; test: Proteasome activity assay, striatal synaptosomes; assay type: in vivo; conditions: R6/2 mice, 12 weeks old, 0.05 mg/ml in drinking water
Method: The chymotrypsin-like activity of the proteasome was determined using a specific proteasome substrate [succinyl (suc)-Leu-Leu-Val-Tyr-7-amino-4-methyl coumarin (AMC)] (Sigma-Aldrich, St Louis, MO, USA) as described earlier. In brief, the synaptosome-enriched fraction (10 µg) were incubated with the substrate (40 µM) in 100 µl of proteasome assay buffer [0.05 M Tris-HCl (pH 8.0), 0.5 mM EDTA, 1 mM ATP, and 1 mM DTT] at 37°C for 60 min where the relationship between the incubation time and product formation remained linear. The fluorescence of the released AMC was detected using a Fluorescence Microplate Reader System (Device, Sunnyvale, CA, USA) at 380-nm excitation and 460-nm emission wavelengths.

[8] = guinea pig cerebral cortex membranes, 3H-NBTI 0.5 nM

T10 sequence (P25090 whole entry): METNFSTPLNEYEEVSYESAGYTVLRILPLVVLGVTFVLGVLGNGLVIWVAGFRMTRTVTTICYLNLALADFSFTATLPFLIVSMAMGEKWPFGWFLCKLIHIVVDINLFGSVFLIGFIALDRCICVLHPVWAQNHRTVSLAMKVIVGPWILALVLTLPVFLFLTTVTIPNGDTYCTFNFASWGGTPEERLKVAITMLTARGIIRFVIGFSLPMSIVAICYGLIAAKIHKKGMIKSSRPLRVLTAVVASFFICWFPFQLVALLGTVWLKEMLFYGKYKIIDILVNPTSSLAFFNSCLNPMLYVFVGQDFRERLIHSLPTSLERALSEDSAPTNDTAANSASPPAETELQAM
T7 sequence (P08908 whole entry): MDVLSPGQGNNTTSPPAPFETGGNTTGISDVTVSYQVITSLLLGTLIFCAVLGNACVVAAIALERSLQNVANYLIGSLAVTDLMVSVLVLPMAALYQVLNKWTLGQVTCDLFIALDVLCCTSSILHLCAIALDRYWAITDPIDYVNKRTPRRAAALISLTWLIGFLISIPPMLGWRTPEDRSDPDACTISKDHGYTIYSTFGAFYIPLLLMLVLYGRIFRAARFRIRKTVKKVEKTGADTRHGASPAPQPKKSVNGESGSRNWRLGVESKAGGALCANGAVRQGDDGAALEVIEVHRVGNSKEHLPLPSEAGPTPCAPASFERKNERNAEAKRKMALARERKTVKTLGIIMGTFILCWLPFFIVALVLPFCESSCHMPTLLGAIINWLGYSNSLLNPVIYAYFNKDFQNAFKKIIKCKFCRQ
T1 sequence (P08173 whole entry): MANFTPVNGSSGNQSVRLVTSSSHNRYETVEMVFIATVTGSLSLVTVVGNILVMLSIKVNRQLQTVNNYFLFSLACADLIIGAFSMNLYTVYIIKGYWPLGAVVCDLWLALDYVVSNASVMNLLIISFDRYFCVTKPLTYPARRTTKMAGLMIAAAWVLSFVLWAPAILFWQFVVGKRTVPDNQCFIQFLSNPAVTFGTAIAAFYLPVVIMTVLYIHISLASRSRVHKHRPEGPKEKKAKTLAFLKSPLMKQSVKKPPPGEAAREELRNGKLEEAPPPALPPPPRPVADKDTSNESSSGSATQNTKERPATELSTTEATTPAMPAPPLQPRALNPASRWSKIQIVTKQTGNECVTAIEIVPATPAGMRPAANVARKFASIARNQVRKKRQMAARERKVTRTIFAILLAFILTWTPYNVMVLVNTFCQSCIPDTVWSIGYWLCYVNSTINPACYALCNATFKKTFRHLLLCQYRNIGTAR
T3 sequence (Q9UKP6 whole entry): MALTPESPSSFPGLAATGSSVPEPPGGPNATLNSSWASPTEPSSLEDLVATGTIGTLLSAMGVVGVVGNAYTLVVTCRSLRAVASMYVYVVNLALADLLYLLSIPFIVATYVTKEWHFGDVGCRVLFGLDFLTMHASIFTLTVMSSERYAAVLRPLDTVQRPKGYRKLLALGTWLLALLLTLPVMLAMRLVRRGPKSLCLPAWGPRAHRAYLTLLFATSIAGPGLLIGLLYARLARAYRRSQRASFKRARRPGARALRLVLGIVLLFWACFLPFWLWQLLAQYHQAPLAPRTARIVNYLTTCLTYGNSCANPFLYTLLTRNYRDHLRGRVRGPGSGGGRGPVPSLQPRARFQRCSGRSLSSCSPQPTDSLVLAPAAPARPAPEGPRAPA
T9 sequence (Q9JMD7 whole entry): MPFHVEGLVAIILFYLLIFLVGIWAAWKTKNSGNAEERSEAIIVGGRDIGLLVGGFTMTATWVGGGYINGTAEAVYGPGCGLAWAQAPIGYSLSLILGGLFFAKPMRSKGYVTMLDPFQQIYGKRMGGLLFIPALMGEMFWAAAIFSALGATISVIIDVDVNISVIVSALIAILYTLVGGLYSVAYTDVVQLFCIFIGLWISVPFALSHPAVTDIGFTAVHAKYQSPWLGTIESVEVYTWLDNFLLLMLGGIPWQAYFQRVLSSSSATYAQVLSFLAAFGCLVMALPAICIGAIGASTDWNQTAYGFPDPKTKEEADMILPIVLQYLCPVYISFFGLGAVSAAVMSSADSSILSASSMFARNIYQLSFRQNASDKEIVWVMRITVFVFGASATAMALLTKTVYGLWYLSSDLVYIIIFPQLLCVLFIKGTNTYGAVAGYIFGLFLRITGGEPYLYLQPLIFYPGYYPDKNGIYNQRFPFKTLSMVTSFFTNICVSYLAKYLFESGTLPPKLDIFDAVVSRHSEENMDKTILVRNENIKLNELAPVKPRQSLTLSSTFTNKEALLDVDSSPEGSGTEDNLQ
T5 sequence (Q05941 23-502): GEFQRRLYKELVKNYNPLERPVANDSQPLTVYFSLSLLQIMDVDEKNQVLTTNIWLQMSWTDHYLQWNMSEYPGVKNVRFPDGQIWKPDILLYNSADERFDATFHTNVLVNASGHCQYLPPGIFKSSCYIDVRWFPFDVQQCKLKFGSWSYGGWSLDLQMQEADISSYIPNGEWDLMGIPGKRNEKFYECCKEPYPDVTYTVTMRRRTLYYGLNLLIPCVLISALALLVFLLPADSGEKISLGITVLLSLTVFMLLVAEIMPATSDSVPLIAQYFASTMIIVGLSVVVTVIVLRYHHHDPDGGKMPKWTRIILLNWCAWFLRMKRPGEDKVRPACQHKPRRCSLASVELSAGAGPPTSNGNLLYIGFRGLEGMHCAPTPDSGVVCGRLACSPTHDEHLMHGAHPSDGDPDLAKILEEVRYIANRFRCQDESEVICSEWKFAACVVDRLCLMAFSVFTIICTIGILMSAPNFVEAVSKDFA
T4 sequence (P43140 whole entry): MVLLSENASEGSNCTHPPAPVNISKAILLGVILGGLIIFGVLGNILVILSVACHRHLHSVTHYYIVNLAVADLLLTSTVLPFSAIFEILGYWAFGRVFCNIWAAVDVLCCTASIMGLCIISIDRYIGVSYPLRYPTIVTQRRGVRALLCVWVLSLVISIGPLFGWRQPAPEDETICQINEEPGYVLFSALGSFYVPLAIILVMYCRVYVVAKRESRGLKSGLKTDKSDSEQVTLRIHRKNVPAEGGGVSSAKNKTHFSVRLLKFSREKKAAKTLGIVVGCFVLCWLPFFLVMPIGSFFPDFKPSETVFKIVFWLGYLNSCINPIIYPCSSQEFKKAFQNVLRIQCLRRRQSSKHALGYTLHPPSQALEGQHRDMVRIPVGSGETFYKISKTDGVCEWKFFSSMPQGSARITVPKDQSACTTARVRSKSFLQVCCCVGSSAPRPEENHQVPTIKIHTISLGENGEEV
T2 sequence (P30874 whole entry): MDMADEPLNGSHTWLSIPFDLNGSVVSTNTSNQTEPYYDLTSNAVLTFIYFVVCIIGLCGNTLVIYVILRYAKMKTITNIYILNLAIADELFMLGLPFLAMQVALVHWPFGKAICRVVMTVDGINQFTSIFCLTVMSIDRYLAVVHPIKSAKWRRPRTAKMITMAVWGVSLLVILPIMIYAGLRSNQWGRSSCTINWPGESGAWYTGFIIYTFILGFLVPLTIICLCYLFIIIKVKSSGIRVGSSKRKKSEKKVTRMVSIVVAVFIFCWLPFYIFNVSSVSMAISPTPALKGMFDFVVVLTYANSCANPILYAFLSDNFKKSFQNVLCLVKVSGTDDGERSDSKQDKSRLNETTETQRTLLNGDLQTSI
T8 sequence (P30518 whole entry): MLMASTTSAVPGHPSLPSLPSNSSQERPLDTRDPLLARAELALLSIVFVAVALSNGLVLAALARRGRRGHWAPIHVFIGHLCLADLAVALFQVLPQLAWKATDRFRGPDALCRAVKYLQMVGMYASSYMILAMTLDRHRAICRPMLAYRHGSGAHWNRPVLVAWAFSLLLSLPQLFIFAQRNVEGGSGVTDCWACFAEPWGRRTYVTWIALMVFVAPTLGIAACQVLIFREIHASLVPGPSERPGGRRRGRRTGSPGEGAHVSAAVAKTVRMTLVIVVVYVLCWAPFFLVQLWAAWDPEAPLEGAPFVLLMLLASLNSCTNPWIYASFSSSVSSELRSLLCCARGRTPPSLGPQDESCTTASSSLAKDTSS

In the case of `OC[C@H]1O[C@@H](n2cnc3c(NCc4ccc(O)cc4)ncnc32)[C@H](O)[C@@H]1O` [T1-11, N ^6-(4-hydroxybenzyl)adenine riboside], the “% Inhibition” value [1] is reported as 10%, the inhibition at 10 µM (Muscarinic M4) is reported as 9% and the inhibition at 10 µM (Somatostatin sst2) is reported as 9%. The “Formation of striatal Htt aggregates” value (mutant Htt aggregates) was “markedly reduced the formation of striatal Htt aggregates”, the inhibition at 10 µM (Urotensin II) was 6% and the inhibition at 10 µM (Adrenergic α 1A) was -14%. The concentration at 30 min [2] was 0.12 ± 0.01 ng/g, the inhibition at 10 µM [3] was -1% and the inhibition at 10 µM ([4]; 10 μM T1-11, n 2) was 84%. For the same compound, the IC50 [4, 8] was 1.57 µM, the Ki [4, 8] was 0.54 µM and the inhibition at 10 µM [5] was 9%. For the same compound, the inhibition at 10 µM (Vasopressin V2) was -5%, the “% Inhibition” value (Bombesin, Non-Selective) was 6% and the inhibition at 10 µM (Transporter, Choline) was -10%. For the same compound, the inhibition at 10 µM [6] was 5% and the “Chymotrypsin-like activity in striatal synaptosome fractions” value [7] was “significantly enhanced chymotrypsin-like activity in the HD striatum”.

— publication PMC3119665, “A New Drug Design Targeting the Adenosinergic System for Huntington's Disease” (PLoS ONE, 2011)
